Results taken from ChEMBL document CHEMBL1909046, “DrugMatrix in vitro pharmacology data”.

Tests used:
[1] = target: T1, Cytochrome P450 2A6 (Homo sapiens, UniProt P11509); details: bti-tn-5b1-4; further: in other assays of this panel Not Active means under 50% inhibition at 10 µM
T1 sequence (P11509 whole entry): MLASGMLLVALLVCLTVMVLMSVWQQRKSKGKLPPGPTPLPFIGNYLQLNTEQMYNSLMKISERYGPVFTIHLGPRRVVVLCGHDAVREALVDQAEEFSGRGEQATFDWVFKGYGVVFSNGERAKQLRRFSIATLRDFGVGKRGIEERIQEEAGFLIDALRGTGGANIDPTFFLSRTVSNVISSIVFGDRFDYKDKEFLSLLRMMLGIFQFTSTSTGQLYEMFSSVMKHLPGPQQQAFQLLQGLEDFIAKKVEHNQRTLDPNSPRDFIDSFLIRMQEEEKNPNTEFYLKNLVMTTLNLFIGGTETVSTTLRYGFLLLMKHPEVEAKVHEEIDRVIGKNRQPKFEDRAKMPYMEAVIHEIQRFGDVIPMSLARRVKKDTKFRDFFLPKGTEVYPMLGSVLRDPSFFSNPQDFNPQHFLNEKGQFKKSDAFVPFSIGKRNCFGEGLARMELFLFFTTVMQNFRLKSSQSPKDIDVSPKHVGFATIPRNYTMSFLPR

[2] = target: T2, B2 bradykinin receptor (Homo sapiens, UniProt P30411); type: cell membranes, Membrane; details: chem-1; further: in other assays of this panel Not Active means under 50% inhibition at 10 µM
T2 sequence (P30411 whole entry): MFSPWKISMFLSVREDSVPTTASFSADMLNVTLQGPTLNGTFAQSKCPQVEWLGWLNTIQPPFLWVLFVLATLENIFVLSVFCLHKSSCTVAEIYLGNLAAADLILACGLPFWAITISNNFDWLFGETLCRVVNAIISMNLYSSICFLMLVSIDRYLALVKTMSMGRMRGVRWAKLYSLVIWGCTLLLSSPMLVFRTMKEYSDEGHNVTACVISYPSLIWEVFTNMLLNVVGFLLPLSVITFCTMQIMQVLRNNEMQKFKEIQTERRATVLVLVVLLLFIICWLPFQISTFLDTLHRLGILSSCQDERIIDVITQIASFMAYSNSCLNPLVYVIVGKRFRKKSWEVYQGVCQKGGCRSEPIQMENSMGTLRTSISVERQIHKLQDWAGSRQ

[3] = target: T3, C-X-C chemokine receptor type 2 (Homo sapiens, UniProt P25025); type: cell membranes, CHO-K1, Membrane; details: cho-k1; further: in other assays of this panel Not Active means under 50% inhibition at 10 µM
T3 sequence (P25025 whole entry): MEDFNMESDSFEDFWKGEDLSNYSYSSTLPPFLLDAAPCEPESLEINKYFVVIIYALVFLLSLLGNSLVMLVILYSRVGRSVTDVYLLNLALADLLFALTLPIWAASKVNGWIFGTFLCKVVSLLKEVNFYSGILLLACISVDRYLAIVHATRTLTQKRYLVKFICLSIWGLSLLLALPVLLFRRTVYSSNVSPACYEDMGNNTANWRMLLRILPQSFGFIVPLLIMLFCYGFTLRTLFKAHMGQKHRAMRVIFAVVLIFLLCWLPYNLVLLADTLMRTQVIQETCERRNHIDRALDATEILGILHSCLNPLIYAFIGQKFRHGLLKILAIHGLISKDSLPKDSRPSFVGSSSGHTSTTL

[4] = target: 5-hydroxytryptamine receptor 2B (Homo sapiens, UniProt P41595); type: cell membranes, CHO-K1, Membrane; details: cho-k1; further: in other assays of this panel Not Active means under 50% inhibition at 10 µM
[5] = DRUGMATRIX: Platelet-Derived Growth Factor (PDGF) radioligand binding (ligand: [125I] PDGF); type: cell-based; details: nih3t3; Not Active = under 50% inhibition at 10 µM
[6] = target: Cytochrome P450 2E1 (Homo sapiens, UniProt P05181); details: bti-tn-5b1-4; further: in other assays of this panel Not Active means under 50% inhibition at 10 µM
[7] = DRUGMATRIX: Phorbol Ester radioligand binding (ligand: [3H] PDBu); type: cell membranes, Mus musculus, ICR, Brain, Membrane; details: Not Active = under 50% inhibition at 10 µM
[8] = target: Cytochrome P450 2C9 (Homo sapiens, UniProt P11712); details: bti-tn-5b1-4; further: in other assays of this panel Not Active means under 50% inhibition at 10 µM
Sequence of Cytochrome P450 2C9 (P11712 whole entry): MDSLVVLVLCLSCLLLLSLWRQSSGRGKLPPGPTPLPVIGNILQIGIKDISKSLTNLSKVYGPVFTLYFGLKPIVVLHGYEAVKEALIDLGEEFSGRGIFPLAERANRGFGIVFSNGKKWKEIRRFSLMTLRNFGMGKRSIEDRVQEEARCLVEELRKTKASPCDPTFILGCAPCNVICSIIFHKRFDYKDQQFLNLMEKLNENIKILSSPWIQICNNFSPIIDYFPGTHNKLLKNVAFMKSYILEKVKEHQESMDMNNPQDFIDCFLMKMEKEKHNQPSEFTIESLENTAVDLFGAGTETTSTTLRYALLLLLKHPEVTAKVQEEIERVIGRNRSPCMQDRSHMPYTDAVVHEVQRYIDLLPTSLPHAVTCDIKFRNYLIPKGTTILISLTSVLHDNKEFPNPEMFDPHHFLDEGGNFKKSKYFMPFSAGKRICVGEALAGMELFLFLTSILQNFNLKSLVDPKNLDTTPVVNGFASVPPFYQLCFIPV

Sequence of 5-hydroxytryptamine receptor 2B (P41595 whole entry): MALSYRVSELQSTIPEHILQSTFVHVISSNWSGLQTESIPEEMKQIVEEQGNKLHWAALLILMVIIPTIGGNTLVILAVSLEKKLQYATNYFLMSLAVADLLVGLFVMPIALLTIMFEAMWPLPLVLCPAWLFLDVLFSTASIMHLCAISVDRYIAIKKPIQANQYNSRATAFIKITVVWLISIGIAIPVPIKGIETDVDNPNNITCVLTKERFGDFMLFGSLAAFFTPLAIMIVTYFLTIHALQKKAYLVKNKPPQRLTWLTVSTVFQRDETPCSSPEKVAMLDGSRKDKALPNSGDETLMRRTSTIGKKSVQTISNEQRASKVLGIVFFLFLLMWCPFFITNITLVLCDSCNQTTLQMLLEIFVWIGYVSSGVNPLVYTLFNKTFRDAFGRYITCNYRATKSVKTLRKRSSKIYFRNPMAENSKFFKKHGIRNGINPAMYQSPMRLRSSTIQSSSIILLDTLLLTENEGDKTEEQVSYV
Sequence of Cytochrome P450 2E1 (P05181 whole entry): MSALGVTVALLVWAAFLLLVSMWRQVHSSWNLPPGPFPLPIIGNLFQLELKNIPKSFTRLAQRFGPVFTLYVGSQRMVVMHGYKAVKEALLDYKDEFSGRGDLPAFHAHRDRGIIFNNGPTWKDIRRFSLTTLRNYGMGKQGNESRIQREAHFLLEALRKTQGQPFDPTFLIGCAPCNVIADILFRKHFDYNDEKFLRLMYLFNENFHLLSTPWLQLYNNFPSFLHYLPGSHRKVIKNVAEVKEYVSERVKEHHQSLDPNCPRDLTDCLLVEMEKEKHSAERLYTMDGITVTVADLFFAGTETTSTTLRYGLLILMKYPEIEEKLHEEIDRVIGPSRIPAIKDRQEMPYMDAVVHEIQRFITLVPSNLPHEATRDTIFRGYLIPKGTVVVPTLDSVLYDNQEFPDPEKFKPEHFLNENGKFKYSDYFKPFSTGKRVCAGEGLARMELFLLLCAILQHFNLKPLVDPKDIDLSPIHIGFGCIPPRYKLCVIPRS

CN(CCOc1ccc(C[C@H](Nc2ccccc2C(=O)c2ccccc2)C(=O)O)cc1)c1ccccn1
Not Active: IC50 [1] | Ki [1] | IC50 [2] | IC50 [3] | IC50 [4] | IC50 [5] | Ki [5] | IC50 [6] | Ki [6] | IC50 [7] | Ki [7]

O=c1[nH]c2ccccc2c2ccccc12
Not Active: IC50 [1] | Ki [1] | IC50 [2] | IC50 [3] | IC50 [4] | IC50 [5] | Ki [5] | IC50 [8] | Ki [8] | IC50 [6] | Ki [6] | IC50 [7] | Ki [7]

CO[C@H]1O[C@@H]2O[C@@]3(C)CC[C@H]4[C@H](C)CC[C@@H]([C@H]1C)[C@@]24OO3
Not Active: IC50 [1] | Ki [1] | IC50 [2] | IC50 [3] | IC50 [4] | IC50 [5] | Ki [5] | IC50 [8] | Ki [8] | IC50 [6] | Ki [6] | IC50 [7] | Ki [7]

Nc1ccc(Cc2ccc(N)cc2)cc1
Not Active: IC50 [1] | Ki [1] | IC50 [2] | IC50 [3] | IC50 [4] | IC50 [5] | Ki [5] | IC50 [8] | Ki [8] | IC50 [6] | Ki [6] | IC50 [7] | Ki [7]

CC(C)NCC(O)COc1ccc(CC(N)=O)cc1 (configuration not stated) [ATENOLOL]
Not Active: IC50 [1] | Ki [1] | IC50 [2] | IC50 [3] | IC50 [4] | IC50 [5] | Ki [5] | IC50 [6] | Ki [6] | IC50 [7] | Ki [7]

C[C@H]1C[C@H]2[C@@H]3CCC4=CC(=O)C=C[C@]4(C)[C@@]3(F)[C@@H](O)C[C@]2(C)[C@@]1(O)C(=O)CO [BETAMETHASONE]
Not Active: IC50 [1] | Ki [1] | IC50 [2] | IC50 [3] | IC50 [4] | IC50 [5] | Ki [5] | IC50 [6] | Ki [6] | IC50 [7] | Ki [7]

CC(N)Cc1c[nH]c2ccc(OCc3cccs3)cc12 (configuration not stated) [BW-723C86]
Not Active: IC50 [1] | Ki [1] | IC50 [2] | IC50 [3] | IC50 [5] | Ki [5] | IC50 [8] | Ki [8] | IC50 [6] | Ki [6] | IC50 [7] | Ki [7]

CC[C@H]1OC(=O)[C@H](C)[C@@H](O[C@H]2C[C@@](C)(OC)[C@@H](O)[C@H](C)O2)[C@H](C)[C@@H](O[C@@H]2O[C@H](C)C[C@H](N(C)C)[C@H]2O)[C@](C)(O)C[C@@H](C)C(=O)[C@H](C)[C@@H](O)[C@]1(C)O [ERYTHROMYCIN]
Not Active: IC50 [1] | Ki [1] | IC50 [2] | IC50 [3] | IC50 [4] | IC50 [5] | Ki [5] | IC50 [6] | Ki [6] | IC50 [7] | Ki [7]

NS(=O)(=O)c1cc(C(=O)O)c(NCc2ccco2)cc1Cl [FUROSEMIDE]
Not Active: IC50 [1] | Ki [1] | IC50 [2] | IC50 [3] | IC50 [4] | IC50 [5] | Ki [5] | IC50 [6] | Ki [6] | IC50 [7] | Ki [7]

COc1ccc(Cl)cc1C(=O)NCCc1ccc(S(=O)(=O)NC(=O)NC2CCCCC2)cc1 [GLYBURIDE]
Not Active: IC50 [1] | Ki [1] | IC50 [2] | IC50 [3] | IC50 [4] | IC50 [5] | Ki [5] | IC50 [6] | Ki [6] | IC50 [7] | Ki [7]

O=C(O)CNCP(=O)(O)O [GLYPHOSATE]
Not Active: IC50 [2] | IC50 [3] | IC50 [4] | IC50 [5] | Ki [5] | IC50 [7] | Ki [7]

CCN(CCO)CCCC(C)Nc1ccnc2cc(Cl)ccc12 (configuration not stated) [HYDROXYCHLOROQUINE]
Not Active: IC50 [1] | Ki [1] | IC50 [2] | IC50 [3] | IC50 [4] | IC50 [5] | Ki [5] | IC50 [6] | Ki [6] | IC50 [7] | Ki [7]

C#C[C@]1(O)CC[C@H]2[C@@H]3CCC4=CC(=O)CC[C@@H]4[C@H]3CC[C@@]21C [NORETHINDRONE]
Not Active: IC50 [1] | Ki [1] | IC50 [2] | IC50 [3] | IC50 [4] | IC50 [5] | Ki [5] | IC50 [6] | Ki [6] | IC50 [7] | Ki [7]

COc1cc([C@@H]2c3cc4c(cc3[C@H](O)[C@H]3COC(=O)[C@H]23)OCO4)cc(OC)c1OC [PODOFILOX]
Not Active: IC50 [1] | Ki [1] | IC50 [2] | IC50 [3] | IC50 [4] | IC50 [5] | Ki [5] | IC50 [6] | Ki [6] | IC50 [7] | Ki [7]
